Laboratory results taken from patent US10689622B2, “Culture medium for proliferating stem cell, which contains sulfated compound” (AJINOMOTO CO., INC., priority 2012, dated 2020).

Legend:
bFGF [1] = target: T1, bFGF (Homo sapiens, UniProt P09038); assay: Evaluation of bFGF stabilization in Essential 8 medium (ELISA); type: biochemical; settings: 37° C. for 7 days
T1 construct: purchased Lonza (via TAKARA BIO INC.) Ser. No. 00/190,632
Procedure: (§1) A commercially available measurement kit (human bFGF ELISA kit, ELH-bFGF-001, Ray Biotech) was used for quantification of bFGF in the medium. The measurement procedures followed the protocol attached to the kit. The bFGF concentration of the serum-free medium was calculated from the analytical curve (conversion formula) drawn from the absorbance of an analytical curve standard solution. The evaluation criteria of Tables 5-8 are as follows:
(§2) A test compound was dissolved in phosphate buffered saline, and diluted 10-fold with a serum-free medium to adjust the concentration shown in Table 4 (test sample). The test sample was left standing in a tightly sealed Falcon tube at 37° C. for 7 days, and the bFGF concentration was quantified by ELISA measurement. A phosphate buffered saline without a test compound was diluted 10-fold with Essential 8 medium or ReproFF2 medium, and left standing at 37° C. or 4° C. for 7 days, and used as a control.
as §1, with “Table 13” for “Tables 5-8”
as §2, with “Table 12” for “Table 4”

[2] = Measurement of content level of sulfur in test compound (ICP); type: physicochemical; settings: for sulfur content Found (inorganic analysis): ICPS-8100, evaluation samples containing 0.01 wt % test compound
Excerpt: (§3) The content level of sulfur in the sulfated saccharide is generally not less than 5 wt %, preferably not less than 10 wt %, more preferably not less than 15 wt %, and the upper limit is generally not more than 40 wt %, preferably not more than 35 wt %, more preferably not more than 30 wt %. […] Here, the content level of sulfur is a proportion in wt % of sulfur derived only from the sulfate group in sulfated saccharides, which can be measured by a method known in the field (e.g., rhodizonate method, elemental analysis or luminescent spectral analysis).
as §3, with “polymer” for “saccharide”, “wt” for “wt %, preferably not more than 35 wt %, more preferably not more than 30 wt”, “in” for “derived only from”, “the” for “the sulfate group in”, “polymer,” for “saccharides,”, “such as” for “(e.g.,”
The relationship between the content level of sulfur in a test compound (sulfur content) and the cell proliferation promoting effect was examined. The sulfur content was measured using ICPS-8100 manufactured by SHIMADZU CORPORATION and analyzed using ICPS-8000 series Ver1.03. As the reference standard of sulfur, the standard for ICP-MS manufactured by Accu Standard was used. Sulfur reference standard solutions (0, 1, 10, 30, 50 ppm) were prepared, and the sulfur content of the evaluation samples containing 0.01 wt % test compound was measured by an analytical curve method.

[3] = system: Human bone marrow-derived mesenchymal stem cells; assay: Mesenchymal stem cell proliferation system (cell number by DNA quantification); settings: for number of cells relative to control: mesenchymal stem cells
bFGF [4] = target: T1, bFGF; assay: Evaluation of bFGF stabilization in Lonza serum-free medium (ELISA); type: biochemical; settings: for concentration at which a decrease in the protein amount of FGF is not suppressed: as shown in the Examples (methods of Examples I-1 and II-1)
How it was run: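 Compound in PBS diluted 10-fold into serum-free medium and held sealed at 37 °C for 7 days (some sets 3 days). Remaining bFGF quantified by human bFGF sandwich ELISA against a standard curve. Controls were compound-free PBS-medium kept at 37 °C or 4 °C for the same period.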

[5] = Lonza serum-free medium, 37° C. for 7 days, test compound 25 ng/ml
[6] = Lonza serum-free medium, 37° C. for 7 days, test compound 250 ng/ml
[7] = Lonza serum-free medium, 37° C. for 7 days, test compound 25 μg/ml
[8] = Lonza serum-free medium, 37° C. for 7 days, test compound 250 μg/ml
[9] = growth of mesenchymal stem cell, control ratio
[10] = effectiveness in ELISA evaluation of mesenchymal stem cells (medium), 4° C. control ratio

T1 sequence (P09038 143-288): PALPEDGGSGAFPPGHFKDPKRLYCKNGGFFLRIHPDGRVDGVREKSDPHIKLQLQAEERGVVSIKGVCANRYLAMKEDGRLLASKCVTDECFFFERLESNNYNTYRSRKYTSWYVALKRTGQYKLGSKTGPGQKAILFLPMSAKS

concentration at which a decrease in the protein amount of FGF is not suppressed (bFGF [4]) | concentration showing a suppressive effect on a decrease in the bFGF concentration of the medium (bFGF [1]) | sulfur content Found (inorganic analysis) [2] | effectiveness ELISA (bFGF [4]; [10]) | Substance | bFGF concentration relative to that of 4° C. control (ELISA) (bFGF [4]; [5]) | bFGF concentration relative to that of 4° C. control (ELISA) (bFGF [4]; [6]) | bFGF concentration relative to that of 4° C. control (ELISA) (bFGF [4]; [7]) | bFGF concentration relative to that of 4° C. control (ELISA) (bFGF [4]; [8]) | bFGF concentration relative to that of 4° C. control (ELISA) (bFGF [1]; test compound 250 pg/ml) | bFGF concentration relative to that of 4° C. control (ELISA) (bFGF [1]; test compound 25 ng/ml) | bFGF concentration relative to that of 4° C. control (ELISA) (bFGF [1]; test compound 250 ng/ml) | bFGF concentration relative to that of 4° C. control (ELISA) (bFGF [1]; test compound 25 μg/ml) | bFGF concentration relative to that of 4° C. control (ELISA) (bFGF [1]; test compound 250 μg/ml) | effectiveness cells [3, 9] | other results
not more than 2.5 μg/ml | – | – | – | L-triserine SO3Na | x (bFGF concentration was less than 10% relative to that of 4 °C control) | x (bFGF concentration was less than 10% relative to that of 4 °C control) | − (bFGF concentration was not less than 10% and less than 30% relative to that of 4 °C control) | ++ (bFGF concentration was not less than 50% and less than 70% relative to that of 4 °C control) | – | – | – | – | – | – | bFGF concentration, 4° C. ctrl ratio (bFGF [1]; test compound 250 pg/ml): x (bFGF concentration was less than 10% relative to that of 4 °C control); bFGF concentration, 4° C. ctrl ratio (bFGF [1]; test compound 25 ng/ml): x (bFGF concentration was less than 10% relative to that of 4 °C control); bFGF concentration, 4° C. ctrl ratio (bFGF [1]; test compound 250 ng/ml): x (bFGF concentration was less than 10% relative to that of 4 °C control); bFGF concentration, 4° C. ctrl ratio (bFGF [1]; test compound 25 μg/ml): ++ (bFGF concentration was not less than 50% and less than 70% relative to that of 4 °C control); bFGF concentration, 4° C. ctrl ratio (bFGF [1]; test compound 250 μg/ml): +++ (bFGF concentration was not less than 70% relative to that of 4 °C control); sulfer content Found (inorganic analysis) [2]: 18; effectiveness cells ([3]; summary grade of cell proliferation): ⊚ (not less than 120); number of cells relative to control ([3]; test compound 25 pg/ml): — (100-50); number of cells relative to control ([3]; test compound 250 pg/ml): ◯ (not less than 100); number of cells relative to control ([3]; test compound 25 ng/ml): — (100-50); number of cells relative to control ([3]; test compound 250 ng/ml): — (100-50); concentration showing a suppressive effect on a decrease in the bFGF concentration of the medium (bFGF [4]; Lonza serum-free medium, 37° C. for 7 days): not less than 25 μg/ml; bFGF concentration relative to that of 4° C. control (ELISA) (bFGF [4]; Lonza serum-free medium, 37° C. for 7 days, test compound 250 pg/ml): x (bFGF concentration was less than 10% relative to that of 4 °C control); effectiveness ELISA (bFGF [4]; summary grade of bFGF stabilization): ++ (bFGF concentration was not less than 50% and less than 70% relative to that of 4 °C control)
– | not less than 25 μg/ml | 16 wt % | + (+ 30%<) | erythritol SO3Na | x (bFGF concentration was less than 10% relative to that of 4 °C control) | x (bFGF concentration was less than 10% relative to that of 4 °C control) | x (bFGF concentration was less than 10% relative to that of 4 °C control) | + (bFGF concentration was not less than 30% and less than 50% relative to that of 4 °C control) | x (bFGF concentration was less than 10% relative to that of 4 °C control) | x (bFGF concentration was less than 10% relative to that of 4 °C control) | x (bFGF concentration was less than 10% relative to that of 4 °C control) | + (bFGF concentration was not less than 30% and less than 50% relative to that of 4 °C control) | +++ (bFGF concentration was not less than 70% relative to that of 4 °C control) | ◯ (◯ not leas than 100%) | concentration showing a suppressive effect on a decrease in the bFGF concentration in the medium (bFGF [4]; Lonza serum-free medium, 37° C. for 3 days): not less than 25 μg/ml; bFGF concentration relative to that of 4° C. control (ELISA) (bFGF [4]; Lonza serum-free medium, 37° C. for 3 days, test compound 25 ng/ml): x (bFGF concentration was less than 10% relative to that of 4 °C control); bFGF concentration relative to that of 4° C. control (ELISA) (bFGF [4]; Lonza serum-free medium, 37° C. for 3 days, test compound 250 ng/ml): x (bFGF concentration was less than 10% relative to that of 4 °C control); bFGF concentration relative to that of 4° C. control (ELISA) (bFGF [4]; Lonza serum-free medium, 37° C. for 3 days, test compound 25 μg/ml): ++ (bFGF concentration was not less than 50% and less than 70% relative to that of 4 °C control); bFGF concentration relative to that of 4° C. control (ELISA) (bFGF [4]; Lonza serum-free medium, 37° C. for 3 days, test compound 250 μg/ml): +++ (bFGF concentration was not less than 70% relative to that of 4 °C control)
not more than 2.5 μg/ml | not less than 25 μg/ml | 14 wt % | ++ (++ 50%<) | gluconolactone-SO3Na | x (bFGF concentration was less than 10% relative to that of 4 °C control) | x (bFGF concentration was less than 10% relative to that of 4 °C control) | ++ (bFGF concentration was not less than 50% and less than 70% relative to that of 4 °C control) | x (bFGF concentration was less than 10% relative to that of 4 °C control) | x (bFGF concentration was less than 10% relative to that of 4 °C control) | x (bFGF concentration was less than 10% relative to that of 4 °C control) | x (bFGF concentration was less than 10% relative to that of 4 °C control) | ++ (bFGF concentration was not less than 50% and less than 70% relative to that of 4 °C control) | +++ (bFGF concentration was not less than 70% relative to that of 4 °C control) | ◯ (◯ not leas than 100%) | –
– | not less than 2.5 μg/ml | 17 wt % | +++ (+++ 70%<) | maltitol SO3Na | x (bFGF concentration was less than 10% relative to that of 4 °C control) | ++ (bFGF concentration was not less than 50% and less than 70% relative to that of 4 °C control) | +++ (bFGF concentration was not less than 70% relative to that of 4 °C control) | ++ (bFGF concentration was not less than 50% and less than 70% relative to that of 4 °C control) | x (bFGF concentration was less than 10% relative to that of 4 °C control) | x (bFGF concentration was less than 10% relative to that of 4 °C control) | x (bFGF concentration was less than 10% relative to that of 4 °C control) | + (bFGF concentration was not less than 30% and less than 50% relative to that of 4 °C control) | + (bFGF concentration was not less than 30% and less than 50% relative to that of 4 °C control) | ⊚ (⊚ not less than 120%) | –
